Reference: patent publication US20240391958A1, “KEANUMYCINS AND USES THEREOF IN MEDICINE AND PLANT PROTECTION” (Leibniz-Institut für Naturstoff-Forschung und …, priority 2023, published 2024)
≈ marks a conversion by molar mass, not a printed value. Where “and” joins values, the source holds several entries; their conditions need not be identical. Identical values can stand only once. Like-named read-outs stand apart in the source and are kept apart here. Where a SMILES comes first, the peptide text is derived from it. Bridges are numbered along the chain shown (N, C = ends). [ ]: non-standard residue; d: D form. The star is where a group is joined. X1 = CCCCCCCCCCCC[C@@H](O)[C@@H](O)CC(=O)*; Asp(3S-OH) = N[C@H](C(=O)O)[C@H](O)C(=O)O; Thr(4-Cl) = N[C@H](C(=O)O)[C@H](O)CCl; aThr = C[C@H](O)[C@H](N)C(=O)O; d(hSer) = N[C@H](CCO)C(=O)O; dDab = NCC[C@@H](N)C(=O)O; Dab = NCC[C@H](N)C(=O)O; Dhb = C/C=C(\N)C(=O)O

What was measured:
[1] = system: D. discoideum cells (AX2); assay: Amoebicidal activity against D. discoideum (cell count, CASY); type: cell-based; conditions: Dictyostelium discoideum; 72 h, 22 °C, average of two experiments
Description: Amoebicidal activity of keanumycin A against D. discoideum was determined using a previously published method. In brief, 3000 D. discoideum cells (AX2) were cultured in 96-well plates (Sarstedt) in 200 μL HL5 medium containing 1% DMSO (Carl Roth) and a specified amount of compound (starting from 0.5 μM; 2-fold serial dilution) in triplicates at 22° C. After 72 h the cell concentration was determined according to the manufacturers instruction using a CASY® Cell Counter+Analyser System (Model TT, Roche Innovatis AG) equipped with a 60 μm capillary and the evaluation cursor set to 7.5-17.5 μm. The viable cell concentration (including standard deviation) was plotted against the logarithmic concentration of the compound and the IC50 value was determined using PRISM (GraphPad, Version 5.03).

[2] = system: A. castellanii; assay: Amoebicidal activity against Acanthamoeba (resazurin assay); type: cell-based; conditions: 96 h, 28 °C, average of two experiments
Description: (§1) Amoebicidal activity of keanumycin A against Acanthamoeba was determined by culturing A. castellanii or A. comandoni in 96-well plates (Sarstedt) in 100 μL PYG medium (ATCC Medium 712; https://www.atcc.org) containing 1% DMSO (Carl Roth) and a specified amount of compound (starting from 50 μM; 2-fold serial dilution) in triplicates at 28° C. After 96 h the cell viability was determined using a resazurin assay. Therefore, 20 μL of a 1 mM resazurin sodium (Sigma) solution in water was added per single well before it was allowed to incubate for another 3 h at 28° C. Using a plate reader (Tecan Life Sciences, excitation 560 nm and emission 590 nm) the fluorescence emission was determined. The fluorescence (including standard deviation) was plotted against the logarithmic concentration of the compound and the IC50 value was determined using PRISM (GraphPad, Version 5.03).

[3] = system: A. comandoni; assay: as above; type: cell-based; conditions: 96 h, 28 °C, average of two experiments
Description: as §1

[4] = system: human chronic myeloid leukemia cells K-562 (DSM ACC 10); assay: Antiproliferative effect; type: cell-based
Description: (§2) Keanumycin A was assayed for antiproliferative effects (GI50) using human umbilical vein endothelial cells HUVEC (ATCC CRL-1730) and human chronic myeloid leukemia cells K-562 (DSM ACC 10) and for their cytotoxic effects (CC50) using human cervix carcinoma cells HeLa (DSM ACC 57) as previously described). The test compounds were dissolved in DMSO (10 mg mL-1).

[5] = system: human umbilical vein endothelial cells HUVEC (ATCC CRL-1730); assay: Antiproliferative effect; type: cell-based
Description: as §2

[6] = system: Alternaria solani SF003858; assay: Broth dilution method (NCCLS); type: cell-based; conditions: 22 °C
Description: (§3) The activity assay was performed using the broth dilution method according to the EUCAST DEFINITIVE DOCUMENT E.DEF 9.3.2. B. cinerea and A. solani were incubated according to the Methods for dilution antimicrobial susceptibility tests for bacteria that grow aerobically by the NCCLS. Keanumycin A was dissolved in DMSO.

[7] = system: Botrytis cinerea SF011406; assay: Broth dilution method (NCCLS); type: cell-based
Description: as §3

[8] = system: C. albicans strain SC5314; assay: MIC against C. albicans SC5314; type: cell-based; conditions: Candida albicans
[9] = system: human vaginal epithelial cells A431; assay: Toxicity to uninfected vaginal epithelial cells (LDH); type: cell-based; conditions: A431 cells without infection, 24 hours
Description: FIGS. 7A-7B show in 7A) Keanumycin A protected human vaginal epithelial cells in C. albicans infection model. Micrograph depicts % damage to human vaginal epithelial cells A431 (y-axis) in the presence of keanumycin A at varied concentrations (x-axis) as estimated by LDH cytotoxicity assay after 24 hours of infection or treatment. LDH absorbance was normalized to C. albicans infected and uninfected controls. Keanumycin A protected vaginal cells from damage by C. albicans at a narrow concentration range from 4-8 μg/ml (black line). Keanumycin A was toxic to vaginal cells at concentrations above 8 μg/ml (grey line) (N=3). […] Vaginal epithelial cells were lysed after 24-hour infection, and fungal viability was measured by XTT absorbance, normalized to C. albicans infected and uninfected controls (N=2) […]
Overnight culture of C. albicans strain SC5314 grown in YPD at 30° C., shaking at 180 RPM was harvested, washed twice with PBS. […] Epithelial damage was measured 24 hours after infection by collecting and diluting the supernatant 1:10 in PBS and measuring the lactate dehydrogenase (LDH) activity with the Roche Cytotoxicity Detection Kit (LDH) as per manufacturer's instructions. The absorbance (490 nm) values are represented as percentage damage, which is normalized to the low control, where medium only is 0% damage, and high control, where C. albicans infection is 100% damage. […]

[10] = system: C. albicans; assay: Genome-wide microarray, transcription rate change; type: cell-based, Candida albicans; conditions: sublethal concentration, 1-h exposure, vs nontreated
[11] = system: HAC1 mRNA; assay: Splicing of HAC1 mRNA (Ire1-Hac1 UPR pathway); type: cell-based, Candida albicans; conditions: compared to positive tunicamycin control
Source text: (§4) To see if keanumycin A triggers the same canonical Ire1-Hac1 UPR pathway, the inventors looked at the splicing of HAC1 mRNA, which is regulated by Ire1. […] Since no other specific signaling pathway stood out, the inventors screened homozygous knockout mutants for significant growth differences in the absence and presence of a sublethal concentration of the NRLP. […] PLB5 is an important gene for phospholipid homeostasis and PMT6 codes for a transmembrane protein mannosyltransferase, which is involved in the construction of the outmost mannan cell wall layer in C. albicans.

[12] = system: C. albicans homozygous knockout mutants; assay: Screen of homozygous knockout mutants for growth differences; type: cell-based, Candida albicans; conditions: absence vs presence of a sublethal concentration
Source text: as §4

Compound: C/C=C1\NC(=O)[C@H]([C@H](C)O)NC(=O)[C@H](CCN)NC(=O)[C@@H](CCO)NC(=O)CNC(=O)[C@@H](CCN)NC(=O)[C@@H](NC(=O)C[C@H](O)[C@H](O)CCCCCCCCCCCC)COC(=O)[C@H]([C@H](O)CCl)NC(=O)[C@H]([C@H](O)C(=O)O)NC1=O [Keanumycin A, keanumycin A] (X1-S[dDab]G[d(hSer)][Dab][aThr][Dhb][Asp(3S-OH)][Thr(4-Cl)]; ester 1-C)
- IC50 [1]: 4.4 nM
- IC50 [2]: 2000 nM
- IC50 [3]: 3.1 µM
- GI50 ([4]; K562): 26.8 µg/mL
- GI50 ([4]; K562, K-562, converted value, read-out: GI50): 23 µM
- GI50 [5]: ≥ 50 µg/mL
- GI50 ([5]; converted value, read-out: GI50): > 43 µM
- MIC [6]: 1.07 µM and 1.25 µg/mL
- MIC ([7]; Botrytis cinerea SF011406, NCCLS, 22 °C): 80 µg/L
- MIC ([7]; Botrytis cinerea, SF011406, Botrytis cinerea, NCCLS, 22 °C, read-out: MIC): 0.07 µM
- MIC ([7]; Botrytis cinerea, SF011406, Botrytis cinerea, read-out: MIC): 0.069 µM
- MIC [8]: 1.72 µM (≈ 2.01 µg/mL)
- concentrations toxic to vaginal cells [9]: above 8 μg/ml
- transcription rate change, ERG3 ([10]; ergosterol biosynthesis): −1.83 log2-fold change
- transcription rate change, IPT1 ([10]; sphingolipid biosynthesis): −0.44 log2-fold change
- transcription rate change, ORM1 ([10]; sphingolipid biosynthesis): 0.55 log2-fold change
- transcription rate change, SCS7/FAH1 ([10]; sphingolipid biosynthesis): −1.10 log2-fold change
- transcription rate change, SYR2/SUR2 ([10]; sphingolipid biosynthesis): 0.66 log2-fold change
- splicing of HAC1 mRNA [11]: could not observe splicing in HAC1 mRNA
- growth differences of knockout mutants [12]: most prominent growth differences were observed for Δmkc1, Δplb5, and Δpmt6
